{"source": "patent US8946201B2", "about": "“Methods for inhibiting TGF-β” (Saint Louis University, priority 2007, dated 2015)", "key": {"[1]": {"system": "TβR-I and TβR-II", "assay": "125I-TGF-β1 affinity labeling, Mv1Lu cells", "type": "cell-based, mink", "conditions": "for effect on the LDL- or cholesterol-induced increase of 125I-TGF-β1 binding to TβR-I: co-treatment, β-CD 8 mM, nystatin 25 μg/ml, cholest-4-en-3-one 50 μg/ml (FIG. 4B, C)", "description": "(A) Mv1Lu cells were treated with 50 μg/ml cholesterol at 37° C. After several time periods, as indicated, ^125I-TGF-β1-affinity labeling was performed at 0° C. ^125I-TGF-β1 affinity-labeled TGF-β receptors were analyzed by 7.5% SDS-PAGE and autoradiography (a) and quantified with a PhosphoImager. The bracket indicates the locations of ^125I-TGF-β1 affinity-labeled TβR-I and TβR-II. The ratio of ^125I-TGF-β1 binding to TβR-II and TβR-I is plotted against incubation time (b).\n(B, C, D, E) Cells were treated with increasing concentrations of cholesterol in the presence (C) and absence (B, D, E) of 0.2% β-CD, as indicated. After 1 hr at 37° C., ^125I-TGF-β1 affinity labeling of TβR-I and TβR-II in cells was performed at 0° C. ^125I-TGF-β1 affinity-labeled TβR-I and TβR-II were analyzed by 7.5% SDS-PAGE and autoradiography or quantified with a PhosphoImager. A representative of a total of three analyses is shown (top). The bracket indicates the locations of ^125I-TGF-β affinity-labeled TβR-I and TβR-II. The relative intensities of ^125I-TGF-β1 affinity-labeled TβR-I and TβR-II in cells treated without cholesterol were taken as 100%. The quantitative data from three analyses is shown (bottom).\nThe bracket indicates the locations of ^125I-TGF-β1 affinity-labeled TβR-I and TβR-II. The relative intensities of ^125I-TGF-β1-TβR-I and ^125I-TGF-β1-TβR-II complexes, which were quantified with a PhosphoImager, are plotted against TGF-β1 concentrations (bottom).\n(A, B, C, D, E, F) Cells were treated with LDL (50 μg protein/ml), VLDL (5 μg protein/ml), HDL (50 μg protein/ml), lipoprotein (a) (10 μg/ml), fluvastatin (F; 1 μM), lovastatin (L; 1 μM), nystatin (Nys; 25 μg/ml), β-CD (β-CD; 8 mM), cholest-4-en-3-one (3-one; 50 μg/ml) or cholesterol (Chol; 50 μg/ml) alone or combination of two. After 1 hr at 37° C. or 16 hr at 37° C. (for fluvastatin and lovastatin), ^125I-TGF-β1 affinity labeling of cell-surface TGF-β receptors was performed at 0° C. ^125I-TGF-β1 affinity-labeled TβR-I and TβR-II were analyzed by 7.5% SDS-PAGE and autoradiography. The relative intensities of TβR-I and TβR-II were quantified with a PhosphoImager. The ratio of ^125I-TGF-β1 binding to TβR-II and TβR-I were estimated. The numbers above the lane sequence denote the ratio of TβR-II/TβR-I.\n(G) Mv1Lu cells were treated with 50 μg/ml of cholesterol and cholesterol analogs/derivatives including 25-hydroxycholesterol, 7-dehydrocholesterol (7-DHC), 7-ketocholesterol, 7β, 8β-epoxycholesterol, 7β-hydroxycholesterol, and oxidized 7-dehydrocholesterol (oxy-7DHC). After 1 hr at 37° C., ^125I-TGF-β1 affinity labeling of TGF-β receptors was performed. ^125I-TGF-β1 affinity-labeled TβR-I and TβR-II were analyzed by 7.5% SDS-PAGE and autoradiography. The bracket indicates the locations of ^125I-TGF-β1-affinity-labeled TβR-I and TβR-II. The relative intensities of ^125I-TGF-β1 affinity-labeled TβR-I and TβR-II were determined by a PhosphoImager. The ratios of ^125I-TGF-β1 binding to TβR-II and TβR-I were estimated. The numbers above the lane sequence denote the ratio of TβR-II/TβR-I.\nAfter cross-linking, cell lysates were analyzed by 7.5% SDS-PAGE and autoradiography or quantified by a PhosphoImager. For all experiments, cholesterol or cholesterol derivatives were prepared as the stock solution with a concentration of 25 mg/ml in ethanol. The final concentration of ethanol in the medium was 0.2% (by vol.)."}, "[2]": {"system": "TβR-II", "assay": "TGF-β1-induced degradation of TβR-II, Western blot", "type": "cell-based", "conditions": "1% β-CD", "description": "(E) Cells were treated with several concentrations of cholesterol (a,b) or LDL (c,d) as indicated in the presence and absence of 1% β-CD at 37° C. for 1 hr and further incubated with 50 pM TGF-β for 1 hr. The cell lysates were then subjected to 7.5% SDS-PAGE and Western blot analysis using antibodies to TβR-II and α-actin (a,c). The relative intensities of TβR-II and α-actin on the blot were quantified by densitometry (b,d). The ratio of the relative intensities of TβR-II and α-actin in cells treated without TGF-β1 was taken as the 100% level of TβR-II.\n(F, G) Cells were treated with or without 1 μM lovastatin/fluvastatin or nystatin (25 μg/ml)/cholesterol (50 μg/ml) at 37° C. for 16 hr or 1 hr, respectively. The treated cells were directly analyzed by sucrose density gradient ultracentrifugation analysis (F) or further incubated with 50 pM TGF-β at 37° C. for several time periods as indicated (G). Western blot analysis of the sucrose density gradient fractions (F) and of TGF-β1-treated cell lysates (G) was performed using antibody to TβR-II. The relative levels of TβR-II and α-actin were quantified by densitometry. Fractions ⅘ and 7 represent lipid raft/caveolae and non-lipid raft fractions, respectively. […] The quantitative data from three independent analyses is shown (G, bottom). […]\nCells grown to near confluence on 12-well cluster dishes were treated with cholesterol or LDL in serum-free DMEM (vol.=0.5 ml/well) at 37° C. for 1 hr. […] Treated cells were lysed and cell lysates were analyzed by 7.5% SDS-PAGE and Western blot analysis using anti-Smad2, anti-P-Smad2, anti-caveolin-1, anti-TβR-I (alk5) or anti-TβR-II antibodies as described previously (30). […]\nLipid raft/caveolae-mediated endocytosis of receptor-bound TGF-β results in rapid degradation of TGF-β1 and suppression of TGF-β responsiveness. […] To test this, we analyzed the lipid raft/caveolae and non-lipid raft localization of TβR-I and TβR-II in the plasma membrane of cells treated with or without cholesterol (50 μg/ml) using sucrose density gradient ultracentrifugation analysis. […]"}, "[3]": {"system": "Mv1Lu cells", "assay": "[Methyl-3H]thymidine incorporation (DNA synthesis), Mv1Lu cells", "type": "cell-based, mink", "conditions": "18 hr", "description": "(A, B, C, D, E, F) Cells were treated with 50 μg/ml cholesterol (A, B, C, D) and 50 μg/ml LDL (D) at 37° C. for 1 hr or with 1 μM fluvastatin or lovastatin (E) or several concentrations of fluvastatin (F) at 37° C. for 16 hr and then further incubated with increasing concentrations (as indicated) of TGF-β1 (A, B, C, E) or 50 pM TGF-β1 (D,F) for 2 hr. Northern blot analysis of PAI-1 and G3PDH was performed. A representative of a total of three analyses is shown (a). The relative intensities of the transcripts were quantified with a PhosphoImager. The ratio of the relative intensities of PAI-1 and G3PDH transcripts in cells treated without TGF-β1 and cholesterol, LDL or statins on the blot was taken as 1 fold or 100% of PAI-1 expression. The quantitative data from three independent analyses is shown (b). […] (G) Mv1Lu cells stably expressing a luciferase reporter gene driven by the PAI-1 promoter (MLECs-clone 32) were treated with increasing concentrations (as indicated) of cholesterol at 37 EC for 1 hr (a) or with 1 μM lovastatin at 37° C. for 16 hr (b) and then further incubated with 50 pM TGF-β for 7 hr. The luciferase activity in cells treated without cholesterol was taken as 100% (a). […] (H) Cells were incubated with 0.0625 and 0.125 pM TGF-β1 in the presence of increasing concentrations of cholesterol, as indicated. After 18 hr at 37° C., cell growth was determined by measurement of [^3H-methyl]thymidine incorporation into cellular DNA (a). The [^3H-methyl]thymidine incorporation in cells treated with vehicle only (T1); with TGF-β1 (T2); with cholesterol (T3); with cholesterol and TGF-β1 (T4) was measured. T1 was taken as 100%. The degree (%) of cholesterol-mediated reversal of TGF-β1 growth inhibition was estimated by the equation: % reversal=[1−(T3−T4/T1−T2)]×100 Cholesterol appeared to reverse TGF-β1 growth inhibition in a dose-dependent manner (b). The experiments were carried out in triplicate.\nThe growth of cholesterol-treated cells was determined by measurement of [methyl-^3H]thymidine incorporation into cellular DNA as described (30). Briefly, cells grown near confluence on 48-well clustered dishes were treated with several concentrations of cholesterol at 37° C. for 1 hr in serum-free DMEM. The final concentration of ethanol (the vehicle for cholesterol) in the medium was 0.2%. […] The [methyl-^3H]thymidine incorporation into cellular DNA was then determined by incubation of cells with [methyl-^3H]thymidine at 37° C. for 2 hr in DMEM containing 0.1% fetal calf serum. […]\nAnother prominent biological activity of TGF-β is growth inhibition of many different cell types. […] DNA synthesis was then determined by measurement of [^3H-methyl]thymidine incorporation into cellular DNA (FIG. 2Ha). […]"}}, "data": [{"compound": "CC(C)CCC[C@@H](C)[C@H]1CC[C@H]2[C@@H]3CCC4=CC(=O)CC[C@]4(C)[C@H]3CC[C@]12C", "note": "[4-cholesten-3-one, reference compound]", "values": [{"measurement": "effect on the LDL- or cholesterol-induced increase of 125I-TGF-β1 binding to TβR-I", "setting": "[1]", "result": "abolished"}]}, {"compound": "OC[C@H]1O[C@@H]2O[C@H]3[C@H](O)[C@@H](O)[C@@H](O[C@H]4[C@H](O)[C@@H](O)[C@@H](O[C@H]5[C@H](O)[C@@H](O)[C@@H](O[C@H]6[C@H](O)[C@@H](O)[C@@H](O[C@H]7[C@H](O)[C@@H](O)[C@@H](O[C@H]8[C@H](O)[C@@H](O)[C@@H](O[C@H]1[C@H](O)[C@H]2O)O[C@@H]8CO)O[C@@H]7CO)O[C@@H]6CO)O[C@@H]5CO)O[C@@H]4CO)O[C@@H]3CO", "note": "[β-CD, β-cyclodextrin, reference compound]", "values": [{"measurement": "effect on the cholesterol-enhanced TGF-β1-induced degradation of TβR-II", "setting": "[2]", "result": "abolished"}, {"measurement": "effect on the LDL- or cholesterol-induced increase of 125I-TGF-β1 binding to TβR-I", "setting": "[1]", "result": "abolished"}]}, {"compound": "TGF-β1: transforming growth factor-beta 1, 25-kDa dimeric cytokine; also used 125I-labelled", "values": [{"measurement": "half-maximum concentrations of binding to TβR-I and TβR-II", "setting": "[1]; Mv1Lu cells treated with and without cholesterol, 0° C. 2.5 hr", "result": "50 to 80", "unit": "pM"}, {"measurement": "Kd", "setting": "[1]; stated identical to the half-maximum concentration, read-out: apparent Kd of binding to the TGF-β receptors", "result": "0.05 to 0.08", "unit": "nM"}, {"measurement": "inhibition of DNA synthesis", "setting": "[3]; 0.0625 pM", "result": "~30", "unit": "%"}, {"measurement": "inhibition of DNA synthesis", "setting": "[3]; 0.125 pM", "result": "~40", "unit": "%"}]}]}
